From patent US12071441B2, “10-(di(phenyl)methyl)-4-hydroxy-8,9,9A,10-tetrahydro-7H-pyrrolo[1′,2′:4,5]pyrazino[1,2-b]pyridazine-3,5-dione derivatives and related compounds as inhibitors of the orthomyxovirus replication for treating influenza” (Novartis AG, priority 2018, dated 2024)

Experiments:
Assay in all cases: microbe, parasite or virus in culture
Type in all cases: cell-based
[1] = test system: influenza A virus minigenome (PB2, PB1, PA, NP; luciferase reporter) in 293T cells, RNP_Alaska; conditions: HEK-293T, 48 h
[2] = test system: influenza A virus minigenome (PB2, PB1, PA, NP; luciferase reporter) in 293T cells, RNP_CAL; conditions: HEK-293T, 48 h, read-out: RNP_CAL_EC50
[3] = test system: influenza A virus minigenome (PB2, PB1, PA, NP; luciferase reporter) in 293T cells, RNP_Hubei; conditions: HEK-293T, 48 h

Structure (SMILES) | EC50 [1] [nM] | EC50 [2] [nM] | EC50 [3] [nM]
CCOC(=O)OC(C)Oc1c2n(ncc1=O)[C@@H]([C@H](c1ccccc1)c1cccc(F)c1F)[C@H]1CCCN1C2=O (stereo partly drawn) [Example 56, 1-(((9aR,10S)-10-((R)-(2,3-difluorophenyl)(phenyl)methyl)-3,5-dioxo-3,5,8,9,9a,10-hexahydro-7H-pyrrolo[1′,2′:4,5]pyrazino[1,2-b]pyridazin-4-yl)oxy)ethyl ethyl carbonate] | 100 to 1000 | 100 to 1000 | < 100
CN(C)C(=O)OCOc1c2n(ncc1=O)[C@@H]([C@H](c1ccccc1)c1cccc(F)c1F)[C@H]1CCCN1C2=O [Example 57, (((9aR,10S)-10-((R)-(2,3-difluorophenyl)(phenyl)methyl)-3,5-dioxo-3,5,8,9,9a,10-hexahydro-7H-pyrrolo[1′,2′:4,5]pyrazino[1,2-b]pyridazin-4-yl)oxy)methyl dimethylcarbamate] | < 100 | < 100 | < 100
CC(=O)Oc1c2n(ncc1=O)[C@@H]([C@H](c1ccccc1)c1cccc(F)c1F)[C@H]1CCCN1C2=O [Example 58, (9aR,10S)-10-((R)-(2,3-difluorophenyl)(phenyl)methyl)-3,5-dioxo-3,5,8,9,9a,10-hexahydro-7H-pyrrolo[1′,2′:4,5]pyrazino[1,2-b]pyridazin-4-yl acetate] | < 100 | < 100 | < 100
CCC(=O)Oc1c2n(ncc1=O)[C@@H]([C@H](c1ccccc1)c1cccc(F)c1F)[C@H]1CCCN1C2=O [Example 59, (9aR,10S)-10-((R)-(2,3-difluorophenyl)(phenyl)methyl)-3,5-dioxo-3,5,8,9,9a,10-hexahydro-7H-pyrrolo[1′,2′:4,5]pyrazino[1,2-b]pyridazin-4-yl propionate] | < 100 | < 100 | < 100
CC(C)CC(=O)Oc1c2n(ncc1=O)[C@@H]([C@H](c1ccccc1)c1cccc(F)c1F)[C@H]1CCCN1C2=O [Example 60, (9aR,10S)-10-((R)-(2,3-difluorophenyl)(phenyl)methyl)-3,5-dioxo-3,5,8,9,9a,10-hexahydro-7H-pyrrolo[1′,2′:4,5]pyrazino[1,2-b]pyridazin-4-yl 3-methylbutanoate] | < 100 | < 100 | < 100
COCCC(=O)Oc1c2n(ncc1=O)[C@@H]([C@H](c1ccccc1)c1cccc(F)c1F)[C@H]1CCCN1C2=O [Example 61, (9aR,10S)-10-((R)-(2,3-difluorophenyl)(phenyl)methyl)-3,5-dioxo-3,5,8,9,9a,10-hexahydro-7H-pyrrolo[1′,2′:4,5]pyrazino[1,2-b]pyridazin-4-yl 3-methoxypropanoate] | < 100 | < 100 | < 100
CC(C)(C)C(=O)Oc1c2n(ncc1=O)[C@@H]([C@H](c1ccccc1)c1cccc(F)c1F)[C@H]1CCCN1C2=O [Example 62, (9aR,10S)-10-((R)-(2,3-difluorophenyl)(phenyl)methyl)-3,5-dioxo-3,5,8,9,9a,10-hexahydro-7H-pyrrolo[1′,2′:4,5]pyrazino[1,2-b]pyridazin-4-yl pivalate] | < 100 | < 100 | < 100
CC(C)(C)C(=O)OCOc1c2n(ncc1=O)[C@@H]([C@H](c1ccccc1)c1cccc(F)c1F)[C@H]1CCCN1C2=O [Example 63, (((9aR,10S)-10-((R)-(2,3-difluorophenyl)(phenyl)methyl)-3,5-dioxo-3,5,8,9,9a,10-hexahydro-7H-pyrrolo[1′,2′:4,5]pyrazino[1,2-b]pyridazin-4-yl)oxy)methyl pivalate] | < 100 | < 100 | < 100
CCN(CC)C(=O)OCOc1c2n(ncc1=O)[C@@H]([C@H](c1ccccc1)c1cccc(F)c1F)[C@H]1CCCN1C2=O [Example 67, (((9aR,10S)-10-((R)-(2,3-difluorophenyl)(phenyl)methyl)-3,5-dioxo-3,5,8,9,9a,10-hexahydro-7H-pyrrolo[1′,2′:4,5]pyrazino[1,2-b]pyridazin-4-yl)oxy)methyl diethylcarbamate] | ≥ 1000 | ≥ 1000 | ≥ 1000
CCN(C)C(=O)OCOc1c2n(ncc1=O)[C@@H]([C@H](c1ccccc1)c1cccc(F)c1F)[C@H]1CCCN1C2=O [Example 68, (((9aR,10S)-10-((R)-(2,3-difluorophenyl)(phenyl)methyl)-3,5-dioxo-3,5,8,9,9a,10-hexahydro-7H-pyrrolo[1′,2′:4,5]pyrazino[1,2-b]pyridazin-4-yl)oxy)methyl ethyl(methyl)carbamate] | ≥ 1000 | ≥ 1000 | ≥ 1000
O=C(Oc1c2n(ncc1=O)[C@@H]([C@H](c1ccccc1)c1cccc(F)c1F)[C@H]1CCCN1C2=O)c1ccccc1 [Example 69, (9aR,10S)-10-((R)-(2,3-difluorophenyl)(phenyl)methyl)-3,5-dioxo-3,5,8,9,9a,10-hexahydro-7H-pyrrolo[1′,2′:4,5]pyrazino[1,2-b]pyridazin-4-yl benzoate] | < 100 | < 100 | < 100
COC(=O)c1ccccc1C(=O)Oc1c2n(ncc1=O)[C@@H]([C@H](c1ccccc1)c1cccc(F)c1F)[C@H]1CCCN1C2=O [Example 70, (9aR,10S)-10-((R)-(2,3-difluorophenyl)(phenyl)methyl)-3,5-dioxo-3,5,8,9,9a,10-hexahydro-7H-pyrrolo[1′,2′:4,5]pyrazino[1,2-b]pyridazin-4-yl methyl phthalate] | < 100 | < 100 | < 100
CCN(CC)C(=O)Oc1c2n(ncc1=O)[C@@H]([C@H](c1ccccc1)c1cccc(F)c1F)[C@H]1CCCN1C2=O [Example 71, (9aR,10S)-10-((R)-(2,3-difluorophenyl)(phenyl)methyl)-3,5-dioxo-3,5,8,9,9a,10-hexahydro-7H-pyrrolo[1′,2′:4,5]pyrazino[1,2-b]pyridazin-4-yl diethylcarbamate] | 100 to 1000 | 100 to 1000 | 100 to 1000
CC(C)CC(=O)OCOc1c2n(ncc1=O)[C@@H]([C@H](c1ccccc1)c1cccc(F)c1F)[C@H]1CCCN1C2=O [Example 72, (((9aR,10S)-10-((R)-(2,3-difluorophenyl)(phenyl)methyl)-3,5-dioxo-3,5,8,9,9a,10-hexahydro-7H-pyrrolo[1′,2′:4,5]pyrazino[1,2-b]pyridazin-4-yl)oxy)methyl 3-methylbutanoate] | < 100 | < 100 | < 100
O=C(CC1CCOCC1)Oc1c2n(ncc1=O)[C@@H]([C@H](c1ccccc1)c1cccc(F)c1F)[C@H]1CCCN1C2=O [Example 73, (9aR,10S)-10-((R)-(2,3-difluorophenyl)(phenyl)methyl)-3,5-dioxo-3,5,8,9,9a,10-hexahydro-7H-pyrrolo[1′,2′:4,5]pyrazino[1,2-b]pyridazin-4-yl 2-(tetrahydro-2H-pyran-4-yl)acetate] | < 100 | < 100 | < 100
O=C(Oc1c2n(ncc1=O)[C@@H]([C@H](c1ccccc1)c1cccc(F)c1F)[C@H]1CCCN1C2=O)OC1CCOCC1 [Example 74, (9aR,10S)-10-((R)-(2,3-difluorophenyl)(phenyl)methyl)-3,5-dioxo-3,5,8,9,9a,10-hexahydro-7H-pyrrolo[1′,2′:4,5]pyrazino[1,2-b]pyridazin-4-yl (tetrahydro-2H-pyran-4-yl) carbonate] | < 100 | < 100 | < 100
